# Target: human serotonin 5-HT6R (Homo sapiens, UniProt P50406)
# Assay: Radioligand binding, [3H]-LSD displacement
# Settings: Fig. 2; read-out: pKi 5-HT6 (converted)
# human serotonin 5-HT6R, sequence (P50406 whole entry): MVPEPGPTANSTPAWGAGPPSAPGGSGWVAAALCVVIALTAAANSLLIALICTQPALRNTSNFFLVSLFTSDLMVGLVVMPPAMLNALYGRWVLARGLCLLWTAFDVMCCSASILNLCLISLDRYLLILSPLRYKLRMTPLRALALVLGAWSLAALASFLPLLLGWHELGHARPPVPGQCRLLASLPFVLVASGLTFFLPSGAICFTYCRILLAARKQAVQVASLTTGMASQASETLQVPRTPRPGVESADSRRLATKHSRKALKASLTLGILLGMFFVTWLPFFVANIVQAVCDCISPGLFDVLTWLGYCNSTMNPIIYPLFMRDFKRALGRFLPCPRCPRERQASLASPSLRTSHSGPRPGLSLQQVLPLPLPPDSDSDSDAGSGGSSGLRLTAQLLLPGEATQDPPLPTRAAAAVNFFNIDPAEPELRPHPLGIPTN
row,SMILES,Ki [µM]
1,Cn1cncc1-c1ccccc1 [2e],> 10
2,C=CCn1cncc1-c1c[nH]c2ccc(OC)cc12 [1i],5.75
3,COc1ccc2[nH]cc(-c3cncn3C)c2c1 [1b],2.4
4,Cn1cncc1-c1c[nH]c2ccccc12 [1a],3.39

# Target: human 5-HT7 receptor (Homo sapiens, UniProt P34969)
# Assay: Functional assay, cAMP production (TR-FRET) in HEK293 cells overexpressing 5-HT7R
# Type: cell-based
# Settings: not given
# human 5-HT7 receptor, sequence (P34969 1-432 limits assumed): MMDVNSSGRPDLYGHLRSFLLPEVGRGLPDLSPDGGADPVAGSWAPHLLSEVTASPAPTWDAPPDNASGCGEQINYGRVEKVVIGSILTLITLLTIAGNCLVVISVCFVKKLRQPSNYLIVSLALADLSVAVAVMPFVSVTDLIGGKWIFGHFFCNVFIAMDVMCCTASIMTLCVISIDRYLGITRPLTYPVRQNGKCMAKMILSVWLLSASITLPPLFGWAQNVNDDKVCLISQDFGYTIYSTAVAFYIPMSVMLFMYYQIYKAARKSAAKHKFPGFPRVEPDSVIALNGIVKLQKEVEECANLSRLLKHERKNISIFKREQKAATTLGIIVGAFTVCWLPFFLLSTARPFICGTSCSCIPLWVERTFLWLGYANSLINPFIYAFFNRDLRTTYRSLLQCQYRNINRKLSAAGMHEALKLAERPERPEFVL
row,SMILES,function at the human 5-HT7 receptor
1,COc1ccc2[nH]cc(-c3cncn3C)c2c1 [1b],full agonists

# Same assay, conditions: hydrochloride salts
row,SMILES,EC50 [µM]
1,COc1ccc2[nH]cc(-c3cncn3C)c2c1 [1b],0.15

# Test system: not given
# Assay: not given
# Settings: not given
row,SMILES,melting point [°C]
1,COc1ccc2[nH]cc(-c3cncn3C)c2c1 [1b],236
2,Cn1cncc1-c1c[nH]c2ccccc12 [1a],88 to 90

# Target: T1, human serotonin 5-HT2A receptor (Homo sapiens, UniProt P28223)
# T1 construct: host or cells: CHO-K1
# T1 sequence (P28223 whole entry): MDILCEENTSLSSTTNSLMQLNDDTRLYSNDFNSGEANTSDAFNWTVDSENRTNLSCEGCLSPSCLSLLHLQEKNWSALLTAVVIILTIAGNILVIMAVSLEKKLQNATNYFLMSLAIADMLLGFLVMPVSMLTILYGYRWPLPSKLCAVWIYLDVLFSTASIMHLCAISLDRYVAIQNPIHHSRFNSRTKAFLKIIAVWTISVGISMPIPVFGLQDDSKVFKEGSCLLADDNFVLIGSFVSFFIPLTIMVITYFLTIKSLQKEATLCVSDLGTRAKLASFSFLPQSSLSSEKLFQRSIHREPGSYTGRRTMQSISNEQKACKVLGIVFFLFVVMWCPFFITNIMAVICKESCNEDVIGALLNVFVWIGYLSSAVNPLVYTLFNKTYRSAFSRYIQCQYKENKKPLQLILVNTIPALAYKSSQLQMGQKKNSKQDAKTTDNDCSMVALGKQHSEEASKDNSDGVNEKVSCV
# Assay: Radioligand binding, [3H]-ketanserin displacement
# Settings: Fig. 2; read-out: pKi 5-HT2A (converted)
row,SMILES,Ki [µM]
1,Cn1cncc1-c1ccccc1 [2e],> 10
2,C=CCn1cncc1-c1c[nH]c2ccc(OC)cc12 [1i],> 10
3,COc1ccc2[nH]cc(-c3cncn3C)c2c1 [1b],3.39
4,Cn1cncc1-c1c[nH]c2ccccc12 [1a],6.92

# Target: human dopamine D2LR (Homo sapiens, UniProt P14416)
# Sequence (P14416 whole entry): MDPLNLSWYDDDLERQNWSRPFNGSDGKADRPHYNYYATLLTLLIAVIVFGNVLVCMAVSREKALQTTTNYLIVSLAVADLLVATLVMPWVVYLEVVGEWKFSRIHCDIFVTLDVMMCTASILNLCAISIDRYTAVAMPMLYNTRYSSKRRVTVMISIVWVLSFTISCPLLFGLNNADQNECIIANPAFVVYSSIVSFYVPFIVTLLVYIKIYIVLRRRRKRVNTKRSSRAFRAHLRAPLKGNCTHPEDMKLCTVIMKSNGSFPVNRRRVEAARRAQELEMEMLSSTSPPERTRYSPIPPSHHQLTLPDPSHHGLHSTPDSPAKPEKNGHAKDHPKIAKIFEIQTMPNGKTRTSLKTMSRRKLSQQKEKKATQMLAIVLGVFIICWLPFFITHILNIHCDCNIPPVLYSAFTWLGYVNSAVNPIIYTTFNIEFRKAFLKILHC
# Assay: Radioligand binding, [3H]-raclopride displacement
# Settings: Fig. 2; read-out: pKi D2 (converted)
row,SMILES,Ki [µM]
1,Cn1cncc1-c1ccccc1 [2e],> 10
2,C=CCn1cncc1-c1c[nH]c2ccc(OC)cc12 [1i],> 10
3,COc1ccc2[nH]cc(-c3cncn3C)c2c1 [1b],> 10
4,Cn1cncc1-c1c[nH]c2ccccc12 [1a],6.92

# Target: T2, human serotonin 5-HT1AR (Homo sapiens, UniProt P08908)
# T2 sequence (P08908 1-422): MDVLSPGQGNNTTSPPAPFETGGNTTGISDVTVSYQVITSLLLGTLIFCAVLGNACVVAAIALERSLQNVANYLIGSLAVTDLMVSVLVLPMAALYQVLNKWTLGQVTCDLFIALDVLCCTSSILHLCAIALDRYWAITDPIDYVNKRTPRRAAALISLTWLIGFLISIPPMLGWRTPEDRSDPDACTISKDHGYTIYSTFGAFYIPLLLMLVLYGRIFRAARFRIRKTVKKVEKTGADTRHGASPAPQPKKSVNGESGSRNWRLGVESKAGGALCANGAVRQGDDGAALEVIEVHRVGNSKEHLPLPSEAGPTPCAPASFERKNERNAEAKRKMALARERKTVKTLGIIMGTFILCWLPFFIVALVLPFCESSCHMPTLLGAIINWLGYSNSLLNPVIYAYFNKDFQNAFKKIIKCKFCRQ
# Assay: Radioligand binding, [3H]-8-OH-DPAT displacement
# Settings: Fig. 2; read-out: pKi 5-HT1A (converted)
row,SMILES,Ki [µM]
1,Cn1cncc1-c1ccccc1 [2e],> 10
2,C=CCn1cncc1-c1c[nH]c2ccc(OC)cc12 [1i],0.537
3,COc1ccc2[nH]cc(-c3cncn3C)c2c1 [1b],0.851
4,Cn1cncc1-c1c[nH]c2ccccc12 [1a],4.47

# Target: human serotonin 5-HT7bR (Homo sapiens, UniProt P34969)
# Sequence (P34969 1-432 limits assumed): as the sequence (P34969 1-432 limits assumed) above
# Assay: Radioligand binding, [3H]-5-CT displacement
# Settings: not given
row,SMILES,selectivity over 5-HT1AR [fold]
1,COc1ccc2[nH]cc(-c3cncn3C)c2c1 [1b],> 11
2,Cn1cncc1-c1c[nH]c2ccccc12 [1a],> 11

# Same assay, conditions: Fig. 2; read-out: pKi 5-HT7 (converted)
row,Ki [nM],SMILES
1,> 10000,Cn1cncc1-c1ccccc1 [2e]
2,135,C=CCn1cncc1-c1c[nH]c2ccc(OC)cc12 [1i]

# Same assay, conditions: Table 1; the head of this column prints no unit, nM; read-out: K i (5-HT7R)
row,SMILES,Ki [nM]
1,COc1ccc2[nH]cc(-c3cncn3C)c2c1 [1b],55

# Same assay, conditions: read-out: Ki 5-HT7
row,SMILES,Ki [nM]
1,Cn1cncc1-c1c[nH]c2ccccc12 [1a],385
